Experiment [1] concerns the target T1, Sodium/glucose cotransporter 2 (Homo sapiens) (UniProt P31639).
T1 sequence (whole entry): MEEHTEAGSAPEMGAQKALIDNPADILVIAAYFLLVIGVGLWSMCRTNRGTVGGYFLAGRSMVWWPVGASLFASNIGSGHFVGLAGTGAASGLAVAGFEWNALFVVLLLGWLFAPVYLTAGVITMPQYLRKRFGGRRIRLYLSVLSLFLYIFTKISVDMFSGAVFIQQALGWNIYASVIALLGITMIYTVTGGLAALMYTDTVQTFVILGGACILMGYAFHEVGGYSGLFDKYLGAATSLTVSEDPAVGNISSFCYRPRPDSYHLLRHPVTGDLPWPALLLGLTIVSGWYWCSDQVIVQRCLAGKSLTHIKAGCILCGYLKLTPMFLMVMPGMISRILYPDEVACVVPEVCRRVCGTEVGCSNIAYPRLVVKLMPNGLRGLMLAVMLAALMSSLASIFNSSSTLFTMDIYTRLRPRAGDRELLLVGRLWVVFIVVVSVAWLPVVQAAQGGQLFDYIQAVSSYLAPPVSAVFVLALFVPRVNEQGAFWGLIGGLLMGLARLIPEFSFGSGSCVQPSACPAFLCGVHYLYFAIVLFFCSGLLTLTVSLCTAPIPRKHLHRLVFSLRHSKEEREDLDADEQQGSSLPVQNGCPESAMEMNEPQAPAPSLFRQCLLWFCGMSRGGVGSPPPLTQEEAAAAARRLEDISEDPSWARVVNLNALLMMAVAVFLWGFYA
Kind of experiment: Inhibition of human SGLT2 expressed in COS1 cells assessed as [14C]methyl-alpha-D-glucopyranoside uptake at 50 uM. It is filed as cell-based. Particulars: COS-1.

Experiment [2] has as its target T2, Sodium/glucose cotransporter 1 (Homo sapiens) (UniProt P13866).
T2 sequence (whole entry): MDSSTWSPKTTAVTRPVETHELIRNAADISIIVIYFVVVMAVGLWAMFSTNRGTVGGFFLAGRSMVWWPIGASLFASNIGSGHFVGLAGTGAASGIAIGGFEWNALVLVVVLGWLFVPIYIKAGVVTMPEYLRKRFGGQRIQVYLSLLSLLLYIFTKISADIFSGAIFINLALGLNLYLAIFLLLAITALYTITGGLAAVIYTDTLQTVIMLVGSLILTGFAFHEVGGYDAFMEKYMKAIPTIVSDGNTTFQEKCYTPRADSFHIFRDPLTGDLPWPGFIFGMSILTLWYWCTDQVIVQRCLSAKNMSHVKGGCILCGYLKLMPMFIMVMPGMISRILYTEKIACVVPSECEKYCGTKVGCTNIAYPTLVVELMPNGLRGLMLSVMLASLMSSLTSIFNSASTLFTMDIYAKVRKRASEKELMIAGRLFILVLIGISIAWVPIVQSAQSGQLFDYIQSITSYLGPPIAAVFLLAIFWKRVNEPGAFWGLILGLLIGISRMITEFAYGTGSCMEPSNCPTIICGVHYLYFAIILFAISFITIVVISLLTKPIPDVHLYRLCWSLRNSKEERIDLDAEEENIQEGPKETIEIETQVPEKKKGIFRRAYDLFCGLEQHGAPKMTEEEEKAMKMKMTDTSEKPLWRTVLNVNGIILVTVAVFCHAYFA
Kind of experiment: Inhibition of human SGLT1 expressed in COS1 cells assessed as [14C]methyl-alpha-D-glucopyranoside uptake at 50 uM. It is filed as cell-based. The note with it: COS-1.

What is called inhibition is the relative decrease from the control value, in per cent. With `O=C1CCc2ccc(cc2)Oc2cc(ccc2O)CCCCN1`, the inhibition in experiment [1] came to 76.9%; in experiment [2], 46.5%.
For `COc1ccc2cc1Oc1ccc(cc1)CC[C@@H](O)CCCC2`, in that order: 29.5% and 67.8%.
For `Oc1ccc2cc1Oc1ccc(cc1)CCCCCCC2`, in that order: 77.4% and 96.3%.
For `O=C(Oc1ccc2cc1Oc1ccc(cc1)CC[C@@H](OC(=O)c1ccc(Cl)cc1)CCCC2)c1ccc(Cl)cc1`, in that order: 16.8% and 15.7%.
For the compound `COc1ccc2cc1Oc1ccc(cc1)CCCCC(=O)CC2`, the inhibition stood at 65.4% in experiment [1] and 37.7% in experiment [2].
For `Oc1ccc2cc1Oc1ccc(cc1)CC[C@H](O)CCCC2`, in that order: 33.9% and 92.7%.
For `COc1ccc2cc1Oc1ccc(cc1)CCCCC(O)CC2` (stereo not drawn), in that order: 62.4% and 77.9%.
The like results for `O[C@H]1CCCCc2ccc(OCc3ccccc3)c(c2)Oc2ccc(cc2)CC1` were, in that order, 45.3% and 31.4%.
`O=C1CCCCc2ccc(O)c(c2)Oc2ccc(cc2)CC1`: the inhibition in experiment [1] amounted to 67.8%; in experiment [2], 44.9%.
For `CC(C)C(=O)Oc1ccc2cc1Oc1ccc(cc1)CC[C@@H](OC(=O)C(C)C)CCCC2`, the values for the inhibition in experiment [1] and in experiment [2] were 34.3% and 20.6%, respectively.
In the case of `O=C(Oc1ccc2cc1Oc1ccc(cc1)CC[C@@H](OC(=O)c1ccccc1)CCCC2)c1ccccc1`, the values for the inhibition in experiment [1] and in experiment [2] were -9.7% and -1.7%, respectively.
The like results for `CC(=O)Oc1ccc2cc1Oc1ccc(cc1)CCC(=O)CCCC2` were, in that order, 19.3% and 13.5%.
The like results for `COc1ccc2cc1Oc1ccc(cc1)CCC(=O)CCCC2` were, in that order, 53.3% and 44.6%.
For `CC(=O)Oc1ccc2cc1Oc1ccc(cc1)CC[C@@H](OC(C)=O)CCCC2`, in that order: 67.5% and 68.8%.
As to `Oc1ccc2cc1Oc1ccc(cc1)CCCC[C@H](O)CC2`, the inhibition in experiment [1] amounted to 54.2%; in experiment [2] it was 94.2%.
For `O=C1CCCCc2ccc(OCc3ccccc3)c(c2)Oc2ccc(cc2)CC1`, in that order: 19.8% and 3.9%.
For `Oc1ccc2cc1Oc1ccc(cc1)C/C=C/CCCC2`, in that order: 15.3% and 73.7%.
For `OC[C@H]1O[C@H](Oc2ccc3cc2Oc2ccc(cc2)CC[C@@H](O)CCCC3)[C@H](O)[C@@H](O)[C@@H]1O`, in that order: 15% and 18.3%.
Regarding `O=C1CCCCc2ccc(OC(=O)c3ccccc3)c(c2)Oc2ccc(cc2)CC1`, the inhibition turned out to be 45.2% in experiment [1] and 1.4% in experiment [2].

The record behind these values is ChEMBL document CHEMBL1159054, “Cyclic diarylheptanoids as Na+-glucose cotransporter (SGLT) inhibitors from Acer nikoense” (Bioorg Med Chem Lett, 2010).
